Where two headings read alike, the source gives them in different places.
Legend:
[1] = tested on: Staphylococcus aureus SA100 (ATCC 13709, MSSA, Smith strain); experiment: MIC assay, SA100; format: cell-based; details: S. aureus ATCC 13709, MSSA, Table 4, read-out: MIC SA 100 13709
[2] = tested on: Staphylococcus aureus SA101 (ATCC 29213, MSSA); experiment: MIC assay, SA101; format: cell-based
[3] = tested on: Staphylococcus aureus SA191 (HA-MRSA, tetracycline-resistant); experiment: MIC assay, SA191; format: cell-based; details: S. aureus HA-MRSA, tetracycline-resistant, Table 5, read-out: MIC SA 191
[4] = tested on: Staphylococcus aureus SA158 (tetracycline-resistant tet(K)); experiment: MIC assay, SA158; format: cell-based
[5] = tested on: Enterococcus faecalis EF159 (tet(M)); experiment: MIC assay, EF159; format: cell-based; details: E. faecalis tet(M), Table 4, read-out: MIC EF 159 tetM
[6] = tested on: Enterococcus faecalis EF327 (wound isolate, tet(M)); experiment: MIC assay, EF327; format: cell-based
[7] = tested on: Enterococcus faecium EF404 (blood isolate, tet(M)); experiment: MIC assay, EF404; format: cell-based
[8] = tested on: Streptococcus pneumoniae SP106 (ATCC 49619); experiment: MIC assay, SP106; format: cell-based; details: ATCC49619, S. pneumoniae ATCC 49619, Table 4, read-out: MIC SP 106 49619
[9] = tested on: Haemophilus influenzae HI262 (tetracycline-resistant, ampicillin-resistant); experiment: MIC assay, HI262; format: cell-based; details: H. influenzae tetracycline-resistant, Table 5, read-out: MIC HI 262 33929
[10] = tested on: Escherichia coli EC107 (ATCC 25922); experiment: MIC assay, EC107; format: cell-based
[11] = tested on: Escherichia coli EC155 (tet(A)); experiment: MIC assay, EC155; format: cell-based
[12] = tested on: Enterobacter cloacae EC108 (ATCC 13047); experiment: MIC assay, EC108; format: cell-based; details: ATCC13047, E. cloacae ATCC 13047, Table 4, read-out: MIC ECI 108 13047
[13] = tested on: Escherichia coli EC878 (MG1655 tolC::kan); experiment: microbe, parasite or virus in culture; format: cell-based
[14] = tested on: Proteus mirabilis PM385 (urine ESBL+ isolate); experiment: MIC assay, PM385; format: cell-based
[15] = tested on: Pseudomonas aeruginosa PA111 (ATCC 27853); experiment: MIC assay, PA111; format: cell-based; details: ATCC27853, P. aeruginosa ATCC 27853, Table 4, read-out: MIC PA 111 27853
[16] = tested on: Pseudomonas aeruginosa PA555 (ATCC BAA-47, PAO1); experiment: MIC assay, PA555; format: cell-based
[17] = tested on: Pseudomonas aeruginosa PA669 (2009 tracheal aspirate isolate); experiment: MIC assay, PA669; format: cell-based; details: control compounds
[18] = tested on: Acinetobacter baumannii AB110 (ATCC 19606); experiment: MIC assay, AB110; format: cell-based; details: ATCC19606, A. baumannii ATCC 19606, Table 4, read-out: MIC AB 110 19606
[19] = tested on: Acinetobacter baumannii AB250 (cystic fibrosis isolate, MDR); experiment: MIC assay, AB250; format: cell-based; details: control compounds
EC 880 ipxC = experiment: MIC assay, EC880; format: cell-based
Text: (§1) Minimum Inhibitory Concentration (MIC) Assay
(§2) The assays were run as follows.

EC 882 imp = experiment: MIC assay, EC882; format: cell-based
Text: as §1, §2

[20] = tested on: Klebsiella pneumoniae KP457 (2009 ESBL+, CTX-M, OXA)
KP 194 7E+05 = experiment: MIC assay, KP194; details: Table 5
Method: (§3) MICs were determined according to the Clinical and Laboratory Standards Institute (CLSI) guidances (e.g., CLSI. Performance standards for antimicrobial susceptibility testing; nineteenth information supplement. CLSI document M100-S19, CLSI, 940 West Valley Road, Suite 1400, Wayne, Pa. 19087-1898, USA, 2009). Briefly, frozen bacterial strains were thawed and subcultured onto Mueller Hinton Broth (MHB) or other appropriate media (Streptococcus requires blood and Haemophilus requires hemin and NAD). Following incubation overnight, the strains were subcultured onto Mueller Hinton Agar and again incubated overnight. […] Isolated colonies were selected to prepare a starting inoculum equivalent to a 0.5 McFarland standard. […] Test compounds were prepared by dilution in sterile water to a final concentration of 5.128 mg/mL. Antibiotics (stored frozen, thawed and used within 3 hours of thawing) and compounds were further diluted to the desired working concentrations.
(§4) The assays were run as follows. Fifty μL of MHB was added to wells 2-12 of a 96-well plate. One hundred μL of appropriately diluted antibiotics was added to well 1. Fifty μL of antibiotics was removed from well 1 and added to well 2 and the contents of well 2 mixed by pipetting up and down five times. Fifty μL of the mixture in well 2 was removed and added to well 3 and mixed as above. Serial dilutions were continued in the same manner through well 12. Fifty μL was removed from well 12 so that all contained 50 μL. Fifty μL of the working inoculum was then added to all test wells. A growth control well was prepared by adding 50 μL of working inoculum and 50 μL of MHB to an empty well. The plates were then incubated at 37° C. overnight, removed from the incubator and each well was read on a plate reading mirror. The lowest concentration (MIC) of test compound that inhibited the growth of the bacteria was recorded.

PA 884 35151 = experiment: MIC assay, PA884; details: Pseudomonas aeruginosa, read-out: MIC PA 884 351 51
Method: as §3, §4

CN(C)c1ccc(O)c2c1C[C@H]1C[C@H]3[C@H](N(C)C)C(O)=C(C(N)=O)C(=O)[C@@]3(O)C(O)=C1C2=O [Minocycline, minocycline]
0.06 µg/mL: MIC ([2]; S. aureus ATCC 29213, MSSA, Table 7, read-out: MIC SA 101 29213) | MIC ([2]; control compounds, numeric, read-out: MIC SA 101 29213) | MIC ([2]; control compounds, read-out: MIC SA 101 29213)
2 µg/mL: MIC [12]
32 μg/mL: MIC KP 194 7E+05 (KP 194 7E+05)
0.015 µg/mL: MIC [8] | MIC (EC 880 ipxC; Table 6, read-out: MIC EC 880 ipx C) | MIC (EC 882 imp; Table 6, read-out: MIC EC 882 imp)
0.5 µg/mL: MIC ([10]; ATCC25922, E. coli ATCC 25922, Table 6, read-out: MIC EC 107 259 22) | MIC ([10]; ATCC25922, E. coli ATCC 25922, Table 7, read-out: MIC EC 07 25922) | MIC ([10]; ATCC25922, control compounds, numeric, read-out: MIC EC 107 25922)
0.063 µg/mL: MIC [1] | MIC ([2]; S. aureus ATCC 29213, MSSA, Table 4, read-out: MIC SA 101 29213) | MIC ([2]; S. aureus ATCC 29213, MSSA, Table 6, read-out: MIC SA 101 292 13) | MIC [18]
0.03 µg/mL: MIC ([4]; S. aureus tet(K), Table 5, read-out: MIC SA 158 tetK) | MIC ([4]; S. aureus tet(K), Table 6, read-out: MIC SA 158 tetK) | MIC ([4]; S. aureus tet(K), Table 7, read-out: MIC SA 158 tetK) | MIC ([4]; control compounds, numeric, read-out: MIC SA 158 tetK) | MIC ([4]; control compounds, read-out: MIC SA 158 tetK)
16 µg/mL: MIC [5] | MIC ([14]; P. mirabilis ESBL+, Table 6, read-out: MIC PM 385) | MIC ([14]; control compounds, numeric, read-out: MIC PM 385 CTX-M15) | MIC [15] | MIC ([16]; P. aeruginosa ATCC BAA-47 PAO1, Table 5, read-out: MIC PA 555) | MIC ([16]; P. aeruginosa ATCC BAA-47 PAO1, Table 6, read-out: MIC PA5 55 BAA- 47) | MIC ([16]; P. aeruginosa ATCC BAA-47 PAO1, Table 7, read-out: MIC PA 555 BAA- 47) | MIC ([16]; control compounds, c1, strain PA555 inferred, read-out: MIC) | MIC ([16]; control compounds, numeric, read-out: MIC PA 555 BAA-47)
1 µg/mL: MIC [9] | MIC (PA 884 35151)
0.031 µg/mL: MIC ([4]; S. aureus tet(K), Table 4, read-out: MIC SA 158 tetK)
0.0625 µg/mL: MIC ([2]; S. aureus ATCC 29213, MSSA, Table 5, read-out: MIC SA 101 29213)
32 µg/mL: MIC ([6]; E. faecalis tet(M), Table 6, read-out: MIC EF 327 tet M) | MIC ([6]; control compounds, numeric, read-out: MIC EF 327 tetM)
33 µg/mL: MIC ([17]; c4, strain PA669 inferred, read-out: MIC) | MIC ([17]; numeric, read-out: MIC PA 669)
0.25 µg/mL: MIC ([13]; MG1655, read-out: MIC EC 878 toIC, E. coli MG1655 tolC::kan, Table 6) | MIC ([13]; MG1655, read-out: MIC EC 878 toIC, E. coli MG1655 tolC::kan, Table 7) | MIC ([13]; MG1655, read-out: MIC EC 878 toIC, control compounds) | MIC ([13]; MG1655, read-out: MIC EC 878 tolC, control compounds, numeric)
0.02 µg/mL: MIC (EC 880 ipxC; Table 7, read-out: MIC EC 880 ipxC) | MIC (EC 882 imp; read-out: MIC EC 882 imp, Table 7)
8 µg/mL: MIC [3] | MIC ([7]; E. faecium tet(M), Table 6, read-out: MIC EF 404 tet M) | MIC ([7]; control compounds, numeric, read-out: MIC EF 404 tetM) | MIC ([11]; Escherichia coli, E. coli tet(A), Table 7, read-out: MIC EC 155 tetA) | MIC EC 155 tetA ([11]; control compounds) | MIC ([19]; c8, strain AB250 inferred, read-out: MIC) | MIC ([19]; numeric, read-out: MIC AB 250) | MIC KP 457 [20] | MIC KP 457 CTX- M-15 [20] | MIC KP 457 CTX-M-15 [20]
